Experiments:
Assay in all cases: Post-emergence efficacy, Method A
Format in all cases: in vivo
Lolium perenne (LOLPE) = details: Application rate 500 g/Ha, evaluated after 13 days; for Control of weed species LOLPE after post-emergence application (100=total damage to plant; 0=no damage to plant): Method A
Outline: (§1)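 Damage was rated visually 13 days after treatment on a 0–100 scale, where 100 meant total damage. Plants had been raised for 14 days in soil under glasshouse conditions (24/16 °C, 14 h light, 65% humidity) before spraying with an aqueous dilution of an IF50-based formulation.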

[1] = tested on: Digitaria sanguinalis (DIGSA); details: Application rate 500 g/Ha, evaluated after 13 days; for Control of weed species DIGSA after post-emergence application (100=total damage to plant; 0=no damage to plant): Method A
Outline: as §1

[2] = tested on: Euphorbia heterophylla (EPHHL); details: Application rate 500 g/Ha, evaluated after 13 days; for Control of weed species EPHHL after post-emergence application (100=total damage to plant; 0=no damage to plant): Method A
Outline: as §1

[3] = tested on: Ipomoea hederacea (IPOHE); details: Application rate 500 g/Ha, evaluated after 13 days; for Control of weed species IPOHE after post-emergence application (100=total damage to plant; 0=no damage to plant): Method A
Outline: as §1

[4] = tested on: Amaranthus palmeri (AMAPA); details: Application rate 500 g/Ha, evaluated after 13 days; for Control of weed species AMAPA after post-emergence application (100=total damage to plant; 0=no damage to plant): Method A
Outline: as §1

[5] = tested on: Echinochloa crus-galli (ECHCG); details: Application rate 500 g/Ha, evaluated after 13 days; for Control of weed species ECHCG after post-emergence application (100=total damage to plant; 0=no damage to plant): Method A
Outline: as §1

Setaria faberi (SETFA) = details: Application rate 500 g/Ha, evaluated after 13 days; for Control of weed species SETFA after post-emergence application (100=total damage to plant; 0=no damage to plant): Method A
Outline: as §1

[6] = tested on: Chenopodium album (CHEAL); details: Application rate 500 g/Ha, evaluated after 13 days; for Control of weed species CHEAL after post-emergence application (100=total damage to plant; 0=no damage to plant): Method A
Outline: as §1

Eleusine indica (ELEIN) = details: Application rate 500 g/Ha, evaluated after 13 days; for Control of weed species ELEIN after post-emergence application (100=total damage to plant; 0=no damage to plant): Method A
Outline: as §1

[7] = 100=total damage to plant, 0=no damage

SMILES	Control of weed species LOLPE after post-emergence application (100=total damage to plant; 0=no damage to plant) (Lolium perenne (LOLPE))	Control of weed species DIGSA after post-emergence application (100=total damage to plant; 0=no damage to plant) [1]	Control of weed species EPHHL after post-emergence application (100=total damage to plant; 0=no damage to plant) [2]	Control of weed species IPOHE after post-emergence application (100=total damage to plant; 0=no damage to plant) [3]	Control of weed species AMAPA after post-emergence application (100=total damage to plant; 0=no damage to plant) [4]	Control of weed species ECHCG after post-emergence application (100=total damage to plant; 0=no damage to plant) [5]	Control of weed species SETFA after post-emergence application (100=total damage to plant; 0=no damage to plant) (Setaria faberi (SETFA))	Control of weed species CHEAL after post-emergence application (100=total damage to plant; 0=no damage to plant) [6]	Control of weed species ELEIN after post-emergence application (100=total damage to plant; 0=no damage to plant) (Eleusine indica (ELEIN))	Control of weed species after post-emergence application, LOLPE (Lolium perenne (LOLPE); [7])	Control of weed species after post-emergence application, DIGSA [1, 7]	Control of weed species after post-emergence application, EPHHL [2, 7]	Control of weed species after post-emergence application, IPOHE [3, 7]	Control of weed species after post-emergence application, AMAPA [4, 7]	Control of weed species after post-emergence application, ECHCG [5, 7]	Control of weed species after post-emergence application, SETFA (Setaria faberi (SETFA); [7])	Control of weed species after post-emergence application, CHEAL [6, 7]	Control of weed species after post-emergence application, ELEIN (Eleusine indica (ELEIN); [7])	other results
Cc1n[n+](CCS(=O)(=O)[O-])ccc1-c1ncccn1 [Compound A88, 2-(3-methyl-4-pyrimidin-2-yl-pyridazin-1-ium-1-yl)ethanesulfonate]	60	90	60	30	100	60	70	70	90										
O=P([O-])(O)C[n+]1ccc(-c2ccncn2)cn1 [Compound A236]										0	80	30	40	90	50	30	20	10	
O=C(O)c1ccnc(-c2cc[n+](CCCS(=O)(=O)[O-])nc2)n1 [Compound A146]	50	80	50	30	90	90	100	40	80										
N[C@H](CC[n+]1ccc(-c2ccncn2)cn1)C(=O)O [Compound A235]										0	40	20	20	10	30	30	40	10	
NC(=O)c1cnc(-c2cc[n+](CCC(=O)O)nc2)cn1 [Compound A202, 3-[4-(5-carbamoylpyrazin-2-yl)pyridazin-1-ium-1-yl]propanoic acid 2,2,2-trifluoroacetate]										70	60	100	60	100	80	70	90	20	
Nc1cc(-c2cc[n+](CCS(=O)(=O)[O-])nc2)nc(N)n1 [Compound A187]																			pest or weed control at 500 g/ha (Lolium perenne (LOLPE); Lolium perenne, post-emergence, 312 h, 100=total damage to plant, 0=no damage, read-out: Control of weed species after post-emergence application, LOLPE): 10%; pest or weed control at 500 g/ha ([1]; Digitaria sanguinalis, post-emergence, 312 h, 100=total damage to plant, 0=no damage, read-out: Control of weed species after post-emergence application, DIGSA): 20%; pest or weed control at 500 g/ha ([2]; Euphorbia heterophylla, post-emergence, 312 h, 100=total damage to plant, 0=no damage, read-out: Control of weed species after post-emergence application, EPHHL): 50%; pest or weed control at 500 g/ha ([3]; Ipomoea hederacea, post-emergence, 312 h, 100=total damage to plant, 0=no damage, read-out: Control of weed species after post-emergence application, IPOHE): 20%; pest or weed control at 500 g/ha ([4]; Amaranthus palmeri, post-emergence, 312 h, 100=total damage to plant, 0=no damage, read-out: Control of weed species after post-emergence application, AMAPA): 50%; pest or weed control at 500 g/ha ([5]; Echinochloa crus-galli, post-emergence, 312 h, 100=total damage to plant, 0=no damage, read-out: Control of weed species after post-emergence application, ECHCG): 20%; pest or weed control at 500 g/ha (Setaria faberi (SETFA); Setaria faberi, post-emergence, 312 h, 100=total damage to plant, 0=no damage, read-out: Control of weed species after post-emergence application, SETFA): 10%; pest or weed control at 500 g/ha ([6]; Chenopodium album, post-emergence, 312 h, 100=total damage to plant, 0=no damage, read-out: Control of weed species after post-emergence application, CHEAL): 40%; pest or weed control at 500 g/ha (Eleusine indica (ELEIN); Eleusine indica, post-emergence, 312 h, 100=total damage to plant, 0=no damage, read-out: Control of weed species after post-emergence application, ELEIN): 10%
O=c1cc(-c2cc[n+](CCCS(=O)(=O)[O-])nc2)nc[nH]1 [Compound A116]	10	30	50	10	100	20	30	80	20										
COP(=O)(C[n+]1ccc(-c2ncccn2)cn1)OC.O=S(=O)([O-])C(F)(F)F [Compound A238, 1-(dimethoxyphosphorylmethyl)-4-pyrimidin-2-yl-pyridazin-1-ium trifluoromethanesulfonate]										10	50	50	40	50	40	50	20	30	
CCOP(=O)(CC[n+]1ccc(-c2ncccn2)cn1)OCC.O=C([O-])C(F)(F)F [Compound A124, 1-(2-diethoxyphosphorylethyl)-4-pyrimidin-2-yl-pyridazin-1-ium]	0	10	0	0	0	0	20	0	0										
COP(=O)(C[n+]1ccc(-c2ccncn2)cn1)OC.O=S(=O)([O-])C(F)(F)F [Compound A237]										10	50	0	50	60	10	20	10	70	
